Each structure is given as a SMILES string. Entries after “also recorded” stand apart in the source; their conditions may differ.

Format in all cases: cell-based
The subject of test [1] is Normal Human Epidermal Keratinocytes (NHEKs). In words: Colonization of a standard acellular area (IBIDI chamber gap closure) by keratinocytes. To be noted: vs ethanol control, 6 h and 24 h; for NHEK Proliferation & Migration (colonization of the acellular area): absence of MMC; for NHEK Migration (+MMC) (colonization of the acellular area): presence of MMC. Here is the method: The study consists in an in vitro assay aiming to evaluate the properties of E4 and E2 at 4 concentrations each on keratinocytes and fibroblasts. In this assay, the measurement of the colonization of a standard acellular surface generated from a confluent monolayer of cells using a dedicated culture device (IBIDI chamber) is performed. The assay is performed in absence and in presence of a proliferation inhibitor to focus on cell proliferation and migration or on migration only, respectively.
The study was performed using cultures of Normal Human foreskin-derived Epidermal Keratinocytes (NHEKs, Lonza). The cells were grown in serum free Epilife medium (ThermoFisher Scientific) supplemented with Human Keratinocyte Growth Supplement (HKGS, ThermoFisher Scientific) and antibiotics. The cells were maintained in a humidified incubator at 37° C. with a 5% CO2 atmosphere.
Cells were plated in 2-well silicone inserts with a defined cell free gap (IBIDI chambers; IBIDI GmbH, 80209) that was previously inserted on 12-well culture plates. This culture device allows to create a standardized 500 μm±100 μm cell free gap for monitoring cell colonization. 24 h after seeding, when the culture reached high confluency, cells in the insert were treated, or not, with mitomycin C (MMC) at 10 μg/ml during 2 h. After these 2 hours, the insert was removed, and cells were treated with E2 or E4 in presence or not of MMC for additional 2 h. Then, if appropriate, the culture medium was removed and cells were treated with E2 or E4 for 22 h, in absence of MMC.
For the assay, keratinocytes were plated in Epilife medium without HKGS and all the treatments were performed in this medium. Fibroblasts were plated in DMEM medium containing only 2,5% of FBS and the treatments were performed in absence of FBS.
E2 and E4 were applied at 4 concentrations each (10^−7M, 10^−8M, 10^−9M, 10^−10M). In parallel, cells were treated with a positive control (HKGS 1% for human keratinocytes and PDGF-BB at 10 ng/ml for human fibroblasts).
To monitor cell colonization and to evaluate the gap closure rate, pictures of the gap were taken after different times: at time 0 h, corresponding to the beginning of the treatment with E2 or E4 and to the removal of the culture insert, at time 6 h and at time 24 h (corresponding to the end of the treatments with E2 or E4). Pictures were taken with a microscope Zeiss (Axiover 25-10× objective) and with a camera Invenio2EIII (DeltaPix—Lux-Optic). The colonized areas were quantified from the pictures by the use of the WimAsis platform—WimScratch software. For each insert, 3 pictures were taken at each time. As each condition was performed in triplicates, it means a total of 9 pictures per condition and per time point of acquisition

The subject of test [2] is mouse fibroblasts. In words: Fibroblast monolayer scratch assay, mouse fibroblasts. To be noted: mouse fibroblasts (female C57Bl/6); 10^−7M; pilot experiments. Here is the method: (§1) Confluent wells of both primary keratinocytes and fibroblasts were subjected to a highly validated scratch wounding procedure (using a 1 mL sterile filter tip). Post-scratching, cells were rinsed with DPBS and cell-specific media containing treatments added to each well. Cells were imaged on a ptychographic live cell imaging platform (Livecyte 2™, Phasefocus) for 24-48 hours. Automated tracking of individual unlabeled cells will be combined with 3D cell measurements to quantify a range of wound-relevant cell parameters including scratch closure rate.
(§2) Dose range finding experiments were conducted with E4 (10^−10M to 10^−6M) and E2 with and without Mitomycin C (MMC, to inhibit proliferation) using vehicle as negative controls.

Test [3] concerns primary human epidermal keratinocytes. The test is described as follows: Keratinocyte migration scratch assay. To be noted: 15% HKGS; E4 10^−10M and 10^−7M; compared with E2. Here is the method: Human skin was transferred to the laboratory in holding media (DMEM containing 4% penicillin-streptomycin and Amphotericin B solution) within 30 minutes of collection. Once defatted, the skin was rinsed in HBSS with 4% PSA followed by DPBS without antibiotics, then cut into thin strips and floated on 0.2% Dispase II in DPBS overnight at 4° C., followed by manual separation of the epidermis from the dermis. Primary human epidermal keratinocytes and primary human dermal fibroblasts were then isolated.
as §1, §2

For test [4], the system named is human monocytes. In words: Immune cell polarization (qPCR of M1/M2 markers), human monocytes. To be noted: activated human monocytes; qPCR markers NOS2, ARG1. Here is the method: (§3) Immune cell polarization was evaluated in vitro using markers for M1/TH-1 (NOS2) and M2/TH-2 (ARG1) phenotype with human monocytes and mouse monocytes (BMDM bone marrow derived monocytes).
Human blood was collected under national ethical approval with full informed written patient consent. Freshly isolated human blood was collected in EDTA vacutainer tubes, diluted 1:1 in PBS and gently layered onto histopaque (Merck). Tubes were immediately centrifuged at 100×g for 30 minutes and the whitish buffy layer formed at the histopaque interface aspirated and washed (centrifuged 100×g, 10 minutes) twice with sterile PBS. Untouched classical (CD14++, CD16−) monocytes were isolated from the washed buffy layer cells using the Miltenyi Classical Monocyte Isolation Kit, LS columns and a MidiMACs separator (Miltenyi). Isolated cells were seeded into tissue culture plates and stimulated to differentiate using PMA.
(§4) An experiment was conducted to evaluate the anti-inflammatory effects of E4 or vehicle (negative control). qPCR methodology was used to assess the effects of E2 and E4 on immune cell polarization using well validated marker of pro-inflammatory (NOS2 for MI/TH-1 phenotype) and anti-inflammatory (ARG1 for ME/TH-2 phenotype) activity.
(Quantitative PCR measures a nucleic acid by following its amplification.)

Test [5] relates to mouse BMDM (bone marrow derived monocytes). The test is described as follows: Immune cell polarization (qPCR of M1/M2 markers), mouse BMDM. To be noted: activated mouse BMDM; qPCR markers NOS2, ARG1. Here is the method:
as §3, §4

The subject of test [6] is mouse lymphoma cell line L5178Y TK^+/−. In words: Generation of reactive oxygen species (ROS) in mouse lymphoma cells. To be noted: test item 1 to 3000 μM; 3 h exposure; vs vehicle control; three experiments. As to the method:
The objective of the study was to investigate the generation of reactive oxygen species (ROS) induced by the test item, estetrol (E4), in a mouse lymphoma cell line L5178Y TK^+/−.
L5178Y TK^+/− cells in logarithmic phase of growth were plated in black 96 well cell culture plates at 1×10^4 cells in 90 μL of cell culture media. Controls and test item in triplicate were applied to the cells as a 10× concentrate in 10 μL of a 10% ethanol solution in PBS (final concentration of ethanol on plate was 1%). Cells were incubated for 3 hours at 37° C., 5% CO2, and the generation of ROS was evaluated by fluorescence with a ROS reagent: the ROS reagent was freshly prepared by dissolving one ampoule of reagent (50 μg) in 70 μL DMSO and further diluting this with 2.1 mL of pre-warmed PBS. 10 μL of ROS reagent was added to each well and the plate were shaken for 30 seconds in the dark. The plates were incubated approximately at 37° C., 5% CO2 for 1 h 30 min and fluorescence was read on a plate scanner with excitation at 492 nm and emission at 520 nm.

For `C[C@]12CC[C@@H]3c4ccc(O)cc4CC[C@H]3[C@@H]1[C@@H](O)[C@@H](O)[C@@H]2O` [E4, 1,3,5 (10)-estratrien-3,15alpha,16alpha,17beta-tetrol], the “NHEK Proliferation & Migration (colonization of the acellular area)” value in test [1] (10^−7M) and in test [1] (10^−10M) was “significantly increased the colonization of the acellular area; also recorded: significantly increases the surface colonized” throughout. Moreover, the “NHEK Migration (+MMC) (colonization of the acellular area)” value in test [1] (10^−7M) and in test [1] (10^−10M) was “significantly increased the colonization of the acellular area; also recorded: significantly increases the surface colonized” in each case. Moreover, the “fibroblast migration / in vitro wound closure” value in test [2] is “promotes in vitro wound closure to a similar extent as E2; also recorded: as effective as E2 in promoting fibroblast migration”. The “impact on keratinocyte migration (wound closure)” value in test [3] is on record as “higher than the impact of E2”. In addition, the “immune cell polarization (monocyte subtype M1/M2)” value in test [4] and in test [5] was “switch from monocyte subtype M1 (pro-inflammatory) to subtype M2 (healing)” each time. Also, the “levels of ROS” value in test [6] is “dose-dependent decrease in the levels of ROS”.

The record behind these values is patent publication US20250325467A1, “COMPOSITIONS FOR PREVENTING OR TREATING SKIN AGING” (ESTETRA SRL, priority 2021, published 2025).
